Key:
Beta-secretase 1 [1] = target: T1, Beta-secretase 1 (Homo sapiens, UniProt P56817)
Description: Inhibition of memapsin 2 expressed in CHO cells

Beta-secretase 1 [2] = target: T1, Beta-secretase 1; remark: listed apart in the source
Description: Inhibition of recombinant memapsin 2

Cathepsin D = Cathepsin D (Homo sapiens, UniProt P07339)
Cathepsin D, sequence (P07339 65-162 limits assumed): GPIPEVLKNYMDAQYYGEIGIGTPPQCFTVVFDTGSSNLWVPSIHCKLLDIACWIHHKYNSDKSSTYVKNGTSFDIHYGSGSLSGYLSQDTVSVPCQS
Cathepsin D, sequence (P07339 169-412 limits assumed): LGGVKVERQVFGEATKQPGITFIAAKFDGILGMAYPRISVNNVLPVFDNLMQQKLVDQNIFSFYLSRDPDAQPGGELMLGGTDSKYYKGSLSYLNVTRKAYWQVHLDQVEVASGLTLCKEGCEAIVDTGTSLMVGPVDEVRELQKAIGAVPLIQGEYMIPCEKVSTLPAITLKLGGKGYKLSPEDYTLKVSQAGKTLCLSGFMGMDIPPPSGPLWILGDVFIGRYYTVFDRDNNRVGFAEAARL
Description: Inhibition of human cathepsin D

T1 sequence (P56817 whole entry): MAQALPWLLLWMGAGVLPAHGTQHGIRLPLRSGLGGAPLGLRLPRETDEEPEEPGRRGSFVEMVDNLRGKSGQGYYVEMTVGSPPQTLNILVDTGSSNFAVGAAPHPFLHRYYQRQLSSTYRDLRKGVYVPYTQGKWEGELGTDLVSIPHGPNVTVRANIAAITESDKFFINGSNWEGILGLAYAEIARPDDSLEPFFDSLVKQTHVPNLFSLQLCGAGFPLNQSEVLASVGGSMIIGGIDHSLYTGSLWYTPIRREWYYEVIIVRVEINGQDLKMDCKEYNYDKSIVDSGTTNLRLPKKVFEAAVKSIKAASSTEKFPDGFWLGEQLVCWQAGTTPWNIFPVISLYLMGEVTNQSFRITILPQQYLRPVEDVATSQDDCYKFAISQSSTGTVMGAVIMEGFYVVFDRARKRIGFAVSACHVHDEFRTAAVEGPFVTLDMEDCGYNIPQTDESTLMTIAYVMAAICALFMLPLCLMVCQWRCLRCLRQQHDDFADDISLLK

Row | IC50 (Beta-secretase 1 [1]) [µM] | Ki (Beta-secretase 1 [2]) [nM] | Ki (Cathepsin D) [nM] | Compound
1 | 3.6 | 52.5 | 483 | CCCNC(=O)c1cc(C(=O)N[C@@H](CC(C)C)[C@@H](O)C[C@@H](C)C(=O)N[C@H](C(=O)NC(C)C)C(C)C)cc(N(C)S(C)(=O)=O)c1
2 | 1.8 | 1.8 | 245 | Cc1nc(CNC(=O)c2cc(C(=O)N[C@@H](CC(C)C)[C@@H](O)C[C@@H](C)C(=O)N[C@H](C(=O)NC(C)C)C(C)C)cc(N(C)S(C)(=O)=O)c2)c(C)o1
3 | 190 | 438 | – | CC(C)C[C@H](NC(=O)c1cc(C(=O)N[C@H](CO)c2ccccc2)cc(N(C)S(C)(=O)=O)c1)[C@@H](O)C[C@@H](C)C(=O)N[C@H](C(=O)NC(C)C)C(C)C
4 | 10.3 | 27 | 490 | Cc1nc(C(C)NC(=O)c2cc(C(=O)N[C@@H](CC(C)C)[C@@H](O)C[C@@H](C)C(=O)N[C@H](C(=O)NC(C)C)C(C)C)cc(N(C)S(C)(=O)=O)c2)c(C)o1 (some centres not stated)

Row | Compound | IC50 (Beta-secretase 1 [1]) [µM] | Ki (Beta-secretase 1 [2]) [nM] | Ki (Cathepsin D) [nM]
5 | CCCNC(=O)c1cccc(C(=O)N[C@@H](CC(C)C)[C@@H](O)C[C@@H](C)C(=O)N[C@H](C(=O)NC(C)C)C(C)C)c1 | – | 788 | –

From ChEMBL document CHEMBL1139858, “Design, synthesis, and X-ray structure of potent memapsin 2 (beta-secretase) inhibitors with isophthalamide derivatives as the P2-P3-ligands” (J Med Chem, 2007)
